Measurements published in the SangsterLogP compilation.

How the values were obtained:
[1] = method code SF, from DOI: 10.1021/jm00167a034, PMID: 2329572; settings: pH 7.4
[2] = method code SF-AS, from DOI: 10.1021/jm00040a014, PMID: 8035429; settings: pH 7.4
[3] = method code SF-AS, from DOI: 10.1002/qsar.19830020405; settings: pH 2.0
[4] = method code SF-AS, from Zsuzsa, H.; Nora, K. (1979). Study on the partition coefficient of acetanilides. Nehezvegyp. Kut. Intez. Kozl., 8, 139-146.
[5] = method code SF-HPLC, from PMID: 1854437; settings: pH 7.4
[6] = method code SF, from DOI: 10.1021/jm00140a005, PMID: 7035668; settings: pH 12.0
[7] = method code SF-RC, from DOI: 10.1021/jm201482p, PMID: 22339166; settings: pH 6.8
[8] = not given; remark: listed apart in the source
[9] = not given; remark: listed apart in the source
[10] = method code SF, from Wang, L.; Li, H.; Wang, X.; Zhang, Z. (1993). Determination of aqueous solubilities and partition coefficients of substitutive ethylketone congeners by generator column. Huanjing Huaxue, 12(2)151-154.
[11] = method code SF-RC, from DOI: 10.1021/jm00238a003, PMID: 1120999; settings: pH 7.0
[12] = method code SF-HPLC, from DOI: 10.1002/ps.2780280108
[13] = method code SF-AS, from DOI: 10.1002/pauz.19770060602
[14] = method code SF-HPLC, from DOI: 10.1016/0378-5173(86)90195-x; settings: pH 7.4
[15] = not given; remark: listed apart in the source
[16] = method code SF-AS, from DOI: 10.1016/s0969-8051(99)00063-3, PMID: 10628565; settings: pH 7.0
[17] = method code SF, from DOI: 10.1002/jps.2600830715, PMID: 7965680
[18] = method code SF-RC, from DOI: 10.1021/jf60186a044, PMID: 4688915
[19] = pH 7.4
[20] = not given; remark: listed apart in the source
[21] = method code SF, from DOI: 10.1016/j.ejmech.2012.08.015, PMID: 22960698
[22] = not given; remark: listed apart in the source
[23] = not given; remark: listed apart in the source
[24] = not given; remark: listed apart in the source
[25] = method code SF-AS, from PMID: 7912440
[26] = method code SF-AS, from DOI: 10.1016/s0021-9673(00)91570-x; settings: pH 3.4
[27] = not given; remark: listed apart in the source
[28] = method code SF, from DOI: 10.1584/jpestics.12.445
[29] = method code SF-AS, from DOI: 10.1002/jps.2600611027, PMID: 5072421
[30] = method code SF-HPLC, from DOI: 10.1023/a:1013643013244, PMID: 11837695; settings: pH 6.4
[31] = not given; remark: listed apart in the source
[32] = not given; remark: listed apart in the source
[33] = method code SF-GLC, from DOI: 10.1016/s0021-9673(00)91779-5; settings: pH 7.0
[34] = method code SF-AS, from DOI: 10.1135/cccc19831077; settings: pH 3.5

Cc1cn([C@H]2C[C@H](N=[N+]=[N-])[C@@H](COC(=O)c3cccnc3)O2)c(=O)[nH]c1=O
logD [1]: 0.2

COP(=O)(OC)C(=O)Nc1ccn(C2CSC(COC(=O)P(=O)(OC)OC)O2)c(=O)n1 (centres undefined)
logD [2]: 0.72

CC(C(=O)O)c1cccc(C(=O)c2ccccc2)c1 (centres undefined)
logD [3]: 3.12

CN1CCN(c2ncc(-c3ccncc3)cc2C#N)CC1
logP: 2.96

O=C(CN(C(=O)C(Cl)Cl)c1ccccc1)Nc1ccccc1
logP [4]: 2.96

CCCC(=O)OCn1cnc(CSCCNC(=NC#N)NC)c1C
logD [5]: 1.6

COc1cc(Cc2cnc(N)nc2N)cc(OC)c1C
logD [6]: 2.14

O=c1[nH]c(=O)n([C@H]2C[C@H](O)[C@@H](CO[P@]3(=O)OCc4ccccc4O3)O2)cc1I
logD [7]: 0.65

Nc1ccc(S(=O)(=O)Nc2ccnn2-c2ccccc2)cc1
logP [8]: 1.35

CC(C)CC(O)C(O)C(CC1CCCCCC1)NC(=O)CN (centres undefined)
logP [9]: 1.52

CC(C)CC(O)C(O)C(N)NC1CCCCC1 (centres undefined)
logP [9]: 1.86

CCOP(=O)(CC(=O)Nc1ccn(C2CSC(CO)O2)c(=O)n1)OCC (centres undefined)
logD [2]: 0.99

COc1ccc(C(=O)CSc2ccccc2)cc1
logP [10]: 2.2

Nc1ccn([C@@H]2O[C@H](COC(=O)c3ccccc3)[C@@H](O)[C@@H]2O)c(=O)n1
logD [11]: 0.5

COC(=O)c1c(C)[nH]c(-c2ncccc2Cl)c1C(=O)OC
logP [12]: 1.51

O=C1CN=C(c2ccccn2)c2cc(Br)ccc2N1
logP [13]: 2.05

CCCC(=O)OCOc1ccccc1C(=O)NCN1CCOCC1
logD [14]: 1.34

CC(=O)OCOc1ccccc1C(=O)NCN1CCOCC1
logD [14]: 0.27

N#Cc1ccc(OCC2CCN(CCF)CC2)cc1
logP [15]: 2.8

Nc1ccn([C@@H]2O[C@H](COC(=O)c3cccnc3)[C@@H](O)[C@@H]2O)c(=O)n1
logD [11]: -0.6

Cc1ccc(C(=O)c2ccc(CC(=O)O)n2C)cc1
logD [3]: 2.79

O=c1[nH]c(Nc2ccccc2)nc2c1ncn2CC(O)CO (centres undefined)
logD [16]: 0.4

CC(NC(=O)N(CCCl)N=O)C(=O)NC1CC(C)(C)N(O)C(C)(C)C1 (centres undefined)
logP [17]: 1.28

Cc1ccc(C(c2ccc(C)cc2)C(Cl)(Cl)Cl)cc1
logP [18]: 3.57

COC(=O)c1c(C)[nH]c(-c2cc(Cl)ccn2)c1C(=O)OC
logP [12]: 2.63

Cc1ccc(C)n1Nc1ccc(N2C[C@@H](C)O[C@@H](C)C2)nn1
logD [19]: 2.59

CCCCCc1onc(C)c1N=C1C=C(O)C(=O)c2ccccc21
logP [20]: 3.25

O=C(CC1OC(=O)c2ccccc21)c1ccccc1 (centres undefined)
logP [21]: 2.96

COc1cc(Cc2cnc(N)nc2N)cc(OC)c1Oc1ccc(N)cc1
logD [6]: 0.9

O=C(NC1CCN(CCF)CC1)c1ccc(I)cc1
logP [22]: 2.57

CCCCCC(C=O)(CCCC)c1oc(=O)c(CCCC)c(O)c1CCCC (centres undefined)
logP [23]: 1.52

NS(=O)(=O)c1ccc(-n2cc(-c3ccccc3)nn2)cc1
logP [24]: 2.3

O=C(NC1CCN(CCO)CC1)c1ccc(I)cc1
logP [22]: 1.93

CC(=O)c1cc(C(C)C)ccc1OCC(O)CN (centres undefined)
logP [25]: 0.1

CC1(C)CC(NC(=O)CNC(=O)N(CCCl)N=O)CC(C)(C)N1O
logP [17]: 1.23

O=C1c2c(O)cc(O)cc2O[C@H](c2ccc(O)c(O)c2)[C@H]1O
logP [8]: 1.4

CCCCc1c(C)oc(=O)c(CCCC)c1O
logP [23]: 0.79

Cc1nc(NCCN)c(C#N)cc1-c1ccncc1
logP: 1.91

O=C(O)Cc1ccc(OCc2ccccc2)cc1
logD [26]: 2.85

Cc1nonc1-c1ccc(OCCCc2c[nH]cn2)cc1
logP [27]: 2.92

N#Cc1ccc(OCC2CCN(CCCF)CC2)cc1
logP [15]: 2.8

C=CCOc1ccccc1C(=C)n1ccnc1
logP [28]: 2.74

CCCCCCCCc1ccncc1
logP [29]: 5.42

Cc1ccc(C(c2ccc(Cl)cc2)C(Cl)(Cl)Cl)cc1 (centres undefined)
logP [18]: 4.47

CCCCCN1C(=O)CCC(N2C(=O)c3ccccc3C2=O)C1=O (centres undefined)
logD [30]: 3.01

O=C1c2ccccc2C(=O)c2c(O)cccc21
logP [31]: 3.52

CNC(=NC#N)NCCSCc1ncn(COC(=O)C(C)(C)C)c1C
logD [5]: 1.81

NC(=O)c1c(-c2ccc(OCCCc3c[nH]cn3)cc2)no[n+]1[O-]
logP [27]: 1.57

CC(=O)c1cc(C(C)(C)C)ccc1OCC(O)CN (centres undefined)
logP [25]: 0.38

O=c1[nH]c(Nc2ccccc2)nc2c1ncn2CC(O)CSCCO (centres undefined)
logD [16]: 0.83

Cc1cn(C2CC(N=[N+]=[N-])C(COC(=O)C(N)Cc3ccc(O)cc3)O2)c(=O)[nH]c1=O (centres undefined)
logD [1]: -0.03

CC(C)(C)C(O)C(Oc1ccc(Cl)cc1)n1cncn1 (centres undefined)
logP [32]: 3.05

CC(=O)N(CC(=O)Nc1ccccc1)c1ccccc1
logP [4]: 2.01

Cc1ccc(SCC(=O)c2ccc(C)cc2)cc1
logP [10]: 3.19

COc1cc(CC(=O)O)ccc1OCCCC(C)C
logD [26]: 3.3

Cc1noc(C)c1NC1=CC(=O)C(=O)c2ccccc21
logP [20]: 1.51

COc1ccc(C(=O)CC2OC(=O)c3ccccc32)cc1OC (centres undefined)
logP [21]: 2.61

Cc1cccc2c1O[P@](=O)(OC[C@H]1O[C@@H](n3cc(I)c(=O)[nH]c3=O)C[C@@H]1O)OC2
logD [7]: 0.85

CCOP(=S)(Oc1ccccc1)c1ccccc1 (centres undefined)
logD [33]: 1.79

CN1C(=O)CCC(N2C(=O)c3ccccc3C2=O)C1=O (centres undefined)
logD [30]: 1.15

c1ccc2c(c1)-c1cccc3cccc-2c13
logP [31]: 5.15

O=C(O)Cc1ccc(OCCc2ccccc2)c(Cl)c1
logD [34]: 3.53

C=C(c1ccccc1OCCCCCO)n1ccnc1
logP [28]: 2.89

O=C1CN(O)C(c2ccccc2)=c2cc(Cl)ccc2=N1
logD ([13]; pH 4.0): 1.49

CCCCC(C#N)(Cn1cncn1)c1ccc(Cl)cc1 (centres undefined)
logP [32]: 3.16

CCOP(=S)(Oc1ccc(C)cc1)c1ccccc1 (centres undefined)
logD [33]: 2.22

NS(=O)(=O)c1ccc(-c2cn([C@@H]3O[C@H](CO)[C@@H](O)[C@H](O)[C@H]3O)nn2)cc1
logP [24]: -0.1

CCCCCCCCCc1ccncc1
logP [29]: 6.11

COc1cc(CC(=O)O)ccc1OCc1ccccc1
logD [34]: 2.59
